# Reference: PMC9203742 (Nature Communications, 2022)
# Several values for one entry are separate records, joined by “and”; a condition that tells them apart may be missing. Equal values may be shown once.
# How the values were obtained:
# [1] = system: GFP-positive Purkinje cells infected with AAV-L7-mGlu1^WT; assay: chemLTD recording in GFP-positive Purkinje cells, slices infected with AAV-L7-mGlu1^WT; type: cell-based, mouse; conditions: AAV-L7-mGlu1WT
# [2] = system: MLIs infected with AAV-hSyn-mGlu1^CBC; assay: sAP-mediated currents (firing rate) of MLIs infected with AAV-hSyn-mGlu1^CBC; type: cell-based, mouse; conditions: 10 μM Pd(sulfo-bpy); P = 4.613 × 10^–5
# Experimental: To monitor the excitability of MLIs, sAP-mediated current responses were extracellulary recorded by a loose cell-attached voltage-clamp at a holding potential of 0 mV. Glass electrodes used for cell-attached recordings had resistances of 3–5 MΩ when filled with ACSF. The current recordings from AAV-infected cells were performed 1−2 weeks after infection. The EPSCs and sAP-mediated currents were recorded using an Axopatch 200B amplifier (Molecular Devices), and the pClamp system (version 9.2; Molecular Devices) was used for data acquisition and analysis. The signals were filtered at 1 kHz and digitized at 4 kHz for the evoked EPSCs and 10 kHz for the sAP-mediated currents.
# Injection of viral solutions was performed as described previously with slight modifications. Briefly, under deep anesthesia, with an intraperitoneal injection of medetomidine (0.3 mg/kg), midazolam (4.0 mg/kg), and butorphanol (5.0 mg/kg), 4 µL of the solutions containing AAV mixture were directly injected into the vermis of cerebellar lobules V-VIII (200-300 µm in depth, 12 µL/h in rate) of WT mice (C57BL/6J, P20-P30) using glass pipette (30–40 µm in diameter) and microinjector (Nanoliter; World Precision Instruments). In all, 1−2 week after injection, the mice were used for each experiment.
structure (smiles),measurement,setting,value
Cc1ccnc(-c2cc(COCCCS(=O)(=O)[O-])ccn2)c1.[Cl][Pd][Cl].[Na+] [Pd(sulfo-bpy)],"PF-EPSC amplitude normalized to time 0, mean of cells",[1]; Time 11 min,0.6963
same,"PF-EPSC amplitude normalized to time 0, individual Purkinje cells",[1]; Time 12 min,0.6486 and 0.7811 and 0.7919 and 0.9348 and 0.7682 and 0.482 and 0.6188
same,"PF-EPSC amplitude normalized to time 0, mean of cells",[1]; Time 12 min,0.7179
same,"PF-EPSC amplitude normalized to time 0, individual Purkinje cells",[1]; Time 13 min,0.8009 and 0.7991 and 0.7966 and 0.9028 and 0.809 and 0.4767 and 0.682
same,"PF-EPSC amplitude normalized to time 0, mean of cells",[1]; Time 13 min,0.7525
same,"PF-EPSC amplitude normalized to time 0, individual Purkinje cells",[1]; Time 14 min,0.8571 and 0.8119 and 0.8301 and 0.9359 and 0.8385 and 0.4849 and 0.6984
same,"PF-EPSC amplitude normalized to time 0, mean of cells",[1]; Time 14 min,0.7795
same,"PF-EPSC amplitude normalized to time 0, individual Purkinje cells",[1]; Time 15 min,0.8756 and 0.8988 and 0.8051 and 0.8932 and 0.8452 and 0.5102 and 0.7309
same,"PF-EPSC amplitude normalized to time 0, mean of cells",[1]; Time 15 min,0.7942
same,"PF-EPSC amplitude normalized to time 0, individual Purkinje cells",[1]; Time 16 min,0.9159 and 0.9928 and 0.8396 and 0.8655 and 0.841 and 0.5112 and 0.7755
same,"PF-EPSC amplitude normalized to time 0, mean of cells",[1]; Time 16 min,0.8202
same,"PF-EPSC amplitude normalized to time 0, individual Purkinje cells",[1]; Time 17 min,0.9971 and 1.069 and 0.8238 and 0.8887 and 0.8439 and 0.5087 and 0.7457
same,"PF-EPSC amplitude normalized to time 0, mean of cells",[1]; Time 17 min,0.8396
same,"PF-EPSC amplitude normalized to time 0, individual Purkinje cells",[1]; Time 18 min,1.0288 and 1.119 and 0.837 and 0.8899 and 0.9043 and 0.5561 and 0.7949
same,"PF-EPSC amplitude normalized to time 0, mean of cells",[1]; Time 18 min,0.8757
same,"PF-EPSC amplitude normalized to time 0, individual Purkinje cells",[1]; Time 19 min,0.8877 and 1.0703 and 0.9503 and 0.893 and 0.9667 and 0.5652 and 0.7658
same,"PF-EPSC amplitude normalized to time 0, mean of cells",[1]; Time 19 min,0.8713
same,"PF-EPSC amplitude normalized to time 0, individual Purkinje cells",[1]; Time 20 min,1.078 and 1.198 and 0.844 and 0.865 and 1.008 and 0.5754 and 0.7572
same,"PF-EPSC amplitude normalized to time 0, mean of cells",[1]; Time 20 min,0.9036
same,"PF-EPSC amplitude normalized to time 0, individual Purkinje cells",[1]; Time 21 min,0.9655 and 1.126 and 0.8812 and 0.8773 and 1.052 and 0.5885 and 0.7582
same,"PF-EPSC amplitude normalized to time 0, mean of cells",[1]; Time 21 min,0.8926
same,"PF-EPSC amplitude normalized to time 0, individual Purkinje cells",[1]; Time 22 min,1.0065 and 1.121 and 0.9135 and 0.8951 and 1.02 and 0.5416 and 0.8122
same,"PF-EPSC amplitude normalized to time 0, mean of cells",[1]; Time 22 min,0.9014
same,"PF-EPSC amplitude normalized to time 0, individual Purkinje cells",[1]; Time 23 min,1.013 and 1.096 and 0.8837 and 0.8809 and 1.04 and 0.5776 and 0.8487
same,"PF-EPSC amplitude normalized to time 0, mean of cells",[1]; Time 23 min,0.9057
same,"PF-EPSC amplitude normalized to time 0, individual Purkinje cells",[1]; Time 24 min,1.0609 and 0.96 and 0.924 and 0.9136 and 1.045 and 0.5613 and 0.9388
same,"PF-EPSC amplitude normalized to time 0, mean of cells",[1]; Time 24 min,0.9148
same,"PF-EPSC amplitude normalized to time 0, individual Purkinje cells",[1]; Time 25 min,1.0868 and 0.9289
same,"PF-EPSC amplitude normalized to time 0, mean of cells",[1]; Time 25 min,0.9269
same,"PF-EPSC amplitude normalized to time 0, mean of cells",[1]; Time 26 min,0.8953
same,"PF-EPSC amplitude normalized to time 0, mean of cells",[1]; Time 27 min,0.9119
same,"PF-EPSC amplitude normalized to time 0, mean of cells",[1]; Time 28 min,0.9459
same,"PF-EPSC amplitude normalized to time 0, mean of cells",[1]; Time 29 min,0.9165
same,"PF-EPSC amplitude normalized to time 0, mean of cells",[1]; Time 30 min,0.8807
same,"PF-EPSC amplitude normalized to time 0, mean of cells",[1]; Time 31 min,0.8545
same,"PF-EPSC amplitude normalized to time 0, mean of cells",[1]; Time 32 min,0.8798
same,"PF-EPSC amplitude normalized to time 0, mean of cells",[1]; Time 33 min,0.8652
same,"PF-EPSC amplitude normalized to time 0, mean of cells",[1]; Time 34 min,0.8955
same,"PF-EPSC amplitude normalized to time 0, mean of cells",[1]; Time 35 min,0.9028
same,"PF-EPSC amplitude normalized to time 0, mean of cells",[1]; Time 36 min,0.8988
same,"PF-EPSC amplitude normalized to time 0, mean of cells",[1]; Time 37 min,0.876
same,Firing rate of MLIs,[2],increased the firing rate
